Source: PMC6522941, “Design, synthesis, and anticancer evaluation of novel quinoline derivatives of ursolic acid with hydrazide, oxadiazole, and thiadiazole moieties as potent MEK inhibitors” (Journal of Enzyme Inhibition and Medicinal Chemistry, 2019)

Legend:
MDA-MB-231 cells = experiment: MTT cytotoxic assay, MDA-MB-231; assay type: cell-based, human; settings: Homo sapiens, MDA-MB-231, 72 h
Description: (§1) Human breast cancer cell line (MDA-MB-231), cervical carcinoma cell line (HeLa), the liver cancer cell line (SMMC-7721) and normal hepatocyte cell line (QSG-7701) were maintained in Dulbecco Modified Eagle Medium (DMEM) containing 4.0 mM L-Glutamine and 4500 mg/L Glucose supplemented with 10% (v/v) foetal bovine serum (FBS) and 100 U/mL penicillin/streptomycin at 37 °C in humidified atmosphere of 5% CO2 and 95% air.
(§2) Exponentially growing MDA-MB-231, Hela and SMMC-7721 cell lines were seeded into 96-well plate for 100 μL and treated with different concentrations of the synthetic compounds for 72 h, and then 10 μL of MTT (10 mg/mL) was added and incubation for 3 ∼ 4 h at 37 °C. The generated purple formazan crystals from viable can be dissolved by adding 100 μL DMSO. The plates were swirled gently for 5 min and quantified by measuring the OD of the plates at the wavelength of 540 nm. Each concentration was repeated in three wells and the same experimental condition was provided for all compounds. The results were expressed as IC50 values with standard deviations, which was defined as the concentration at which 50% survival of cells was discerned. Etoposide was co-assayed as positive control.
(§3) The in vitro cytotoxic activity of derivatives 3a–d, 4a–h, 5a–h, and 6a–h were evaluated by MTT assay against human breast cancer cell line (MDA-MB-231), cervical carcinoma cell line (HeLa), hepatocarcinoma cell line (SMMC-7721) and human normal hepatocyte cell line (QSG-7701). The anticancer drug etoposide was co-assayed as the positive control. All tested compounds were dissolved in DMSO and the stock solutions were diluted by DMEM medium before treatment of the cultured cells.

HeLa cells = experiment: MTT cytotoxic assay, HeLa; assay type: cell-based; settings: Homo sapiens, 72 h
Description: as §1, §2, §3

SMMC-7721 cells = experiment: MTT cytotoxic assay, SMMC-7721; assay type: cell-based; settings: Homo sapiens, 72 h
Description: as §1, §2, §3

QSG-7701 cells = experiment: MTT cytotoxic assay, normal hepatocyte QSG-7701; assay type: cell-based, human; settings: for IC50: Homo sapiens, QSG7701, MTT, normal hepatocyte cell line; for Selectivity: IC50 (QSG-7701)/IC50 (HeLa)
Description: as §1, §2, §3

MEK1 = molecular target: T1, MEK1 (Homo sapiens, UniProt Q02750); experiment: In vitro MEK1 kinase assay (ADP-Glo); assay type: biochemical; settings: recombinant GST-MEK1, GST-ERK2 (inactive) substrate, 10 μM ATP
T1 construct: purchased Carna Biosciences, Kobe, Japan
T1 sequence (Q02750 whole entry): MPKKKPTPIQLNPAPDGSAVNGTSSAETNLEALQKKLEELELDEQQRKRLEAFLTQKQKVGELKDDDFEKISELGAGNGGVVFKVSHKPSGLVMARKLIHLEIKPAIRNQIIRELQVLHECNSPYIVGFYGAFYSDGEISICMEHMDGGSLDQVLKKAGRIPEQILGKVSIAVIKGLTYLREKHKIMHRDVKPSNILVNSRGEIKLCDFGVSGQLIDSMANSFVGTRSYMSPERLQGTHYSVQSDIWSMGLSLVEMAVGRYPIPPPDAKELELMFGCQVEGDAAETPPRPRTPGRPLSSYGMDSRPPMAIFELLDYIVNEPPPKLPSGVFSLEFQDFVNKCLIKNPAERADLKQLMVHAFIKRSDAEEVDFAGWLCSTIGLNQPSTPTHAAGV
Description: An in vitro kinase assay of MEK1 was performed using ADP-Glo kinase assay (Promega, Madison, WI, USA) according to the manufacturer’s protocol. […] Reactions were stopped by adding 5 μL of ADP-Glo reagent to each well. After incubating at 22 °C for 40 min, 10 μL of the kinase detection reagent was added and the plates were incubated for another 30 min at 22 °C in the dark. The reaction mixture was analysed by EnSpire (PerkinElmer, Waltham, MA, USA).
The Raf/MEK/ERK pathway is the downstream of Ras activation, and the abnormal expression or phosphorylation of the associated proteins is essential for cancer cell proliferation. In this pathway, MEK kinase is an important anticancer target because of its key roles in regulating the cancer cell apoptosis and oncogenic transformation[51]^,[52]. Among MEK proteins, MEK1 and MEK2 are known as substrate-specific kinases which phosphorylate their downstream kinase ERK1/2.

IC50 (MEK1)	SMILES	IC50 (MDA-MB-231 cells)	IC50 (HeLa cells)	IC50 (SMMC-7721 cells)	IC50 (QSG-7701 cells)	Selectivity (QSG-7701 cells)
	C[C@H]1[C@H](C)CC[C@]2(C(=O)O)CC[C@]3(C)C(=CC[C@@H]4[C@@]5(C)CC[C@H](O)C(C)(C)[C@@H]5CC[C@]43C)[C@H]12 [Compound 1, Ursolic acid]	> 50 µM	> 50 µM	> 50 µM		
	C[C@@H]1CC[C@]2(C(=O)O)CC[C@]3(C)C(=CCC4[C@@]5(C)CCC(=O)C(C)(C)C5CC[C@]43C)C2[C@H]1C (stereo partly shown) [Compound 2, 3-oxo-ursolic acid]	> 50 µM	> 50 µM	> 50 µM		
18.6 µM	C[C@@H]1CC[C@]2(C(=O)O)CC[C@]3(C)C(=CCC4[C@@]5(C)Cc6cc7ccccc7nc6C(C)(C)C5CC[C@]43C)C2[C@H]1C (stereo partly shown) [Compound 3a]	0.75 ± 0.05 µM	0.37 ± 0.04 µM	13.4 ± 0.08 µM	> 50 µM	
3.59 µM	COc1ccc2nc3c(cc2c1)CC1(C)C(CCC2(C)C1CC=C1C4C(C)C(C)CCC4(C(=O)O)CCC12C)C3(C)C (stereo not shown) [Compound 3b]	0.61 ± 0.07 µM	0.36 ± 0.05 µM	12.49 ± 0.08 µM	> 50 µM	142.3
0.37 µM	C[C@@H]1CC[C@]2(C(=O)O)CC[C@]3(C)C(=CCC4[C@@]5(C)Cc6cc7cc(F)ccc7nc6C(C)(C)C5CC[C@]43C)C2[C@H]1C (stereo partly shown) [Compound 3c]	0.9 ± 0.1 µM	1.87 ± 0.03 µM	13.34 ± 0.13 µM	> 50 µM	37.0
0.82 µM	C[C@@H]1CC[C@]2(C(=O)O)CC[C@]3(C)C(=CCC4[C@@]5(C)Cc6cc7cc(Cl)ccc7nc6C(C)(C)C5CC[C@]43C)C2[C@H]1C (stereo partly shown) [Compound 3d]	1.36 ± 0.03 µM	1.22 ± 0.08 µM	14.62 ± 0.05 µM	> 50 µM	59.5
	CCCCC(=O)NNC(=O)[C@]12CC[C@@H](C)[C@H](C)C1C1=CCC3[C@@]4(C)Cc5cc6ccccc6nc5C(C)(C)C4CC[C@@]3(C)[C@]1(C)CC2 (stereo partly shown) [Compound 4e, N-[ursa-12-en-(2,3)-quinoline-28-oyl]-pentanehydrazide]	> 50 µM	> 50 µM	> 50 µM		
	CCCCC(=O)NNC(=O)[C@]12CC[C@@H](C)[C@H](C)C1C1=CCC3[C@@]4(C)Cc5cc6cc(OC)ccc6nc5C(C)(C)C4CC[C@@]3(C)[C@]1(C)CC2 (stereo partly shown) [Compound 4f, N-[5′-methoxy-ursa-12-en-(2,3)-quinoline-28-oyl]-pentanehydrazide]	> 50 µM	> 50 µM	> 50 µM		
	CCCCC(=O)NNC(=O)[C@]12CC[C@@H](C)[C@H](C)C1C1=CCC3[C@@]4(C)Cc5cc6cc(F)ccc6nc5C(C)(C)C4CC[C@@]3(C)[C@]1(C)CC2 (stereo partly shown) [Compound 4g, N-[5′-fluoro-ursa-12-en-(2,3)-quinoline-28-oyl]-pentanehydrazide]	> 50 µM	> 50 µM	> 50 µM		
	CCCCC(=O)NNC(=O)[C@]12CC[C@@H](C)[C@H](C)C1C1=CCC3[C@@]4(C)Cc5cc6cc(Cl)ccc6nc5C(C)(C)C4CC[C@@]3(C)[C@]1(C)CC2 (stereo partly shown) [Compound 4h, N-[5′-chloro-ursa-12-en-(2,3)-quinoline-28-oyl]-pentanehydrazide]	> 50 µM	46 ± 0.91 µM	> 50 µM		
	COc1ccc2nc3c(cc2c1)CC1(C)C(CCC2(C)C1CC=C1C4C(C)C(C)CCC4(c4nnc(C)o4)CCC12C)C3(C)C (stereo not shown) [Compound 5b, N-[5′-methoxy-ursa-12-en-(2,3)-quinoline-28-oyl]-5-methyl-1,3,4-oxadiazole]	12.25 ± 0.12 µM	16.8 ± 0.34 µM	> 50 µM	> 50 µM	5.6
	Cc1nnc([C@]23CC[C@@H](C)[C@H](C)C2C2=CCC4[C@@]5(C)Cc6cc7cc(F)ccc7nc6C(C)(C)C5CC[C@@]4(C)[C@]2(C)CC3)o1 (stereo partly shown) [Compound 5c, N-[5′-fluoro-ursa-12-en-(2,3)-quinoline-28-oyl]-5-methyl-1,3,4-oxadiazole]	13.2 ± 0.58 µM	33.8 ± 0.95 µM	> 50 µM	> 50 µM	3.6
> 50 µM	Cc1nnc([C@]23CC[C@@H](C)[C@H](C)C2C2=CCC4[C@@]5(C)Cc6cc7cc(Cl)ccc7nc6C(C)(C)C5CC[C@@]4(C)[C@]2(C)CC3)o1 (stereo partly shown) [Compound 5d, N-[5′-chloro-ursa-12-en-(2,3)-quinoline-28-oyl]-5-methyl-1,3,4-oxadiazole]	11 ± 0.98 µM		> 50 µM	> 50 µM	20.1
	CCCCc1nnc([C@]23CC[C@@H](C)[C@H](C)C2C2=CCC4[C@@]5(C)Cc6cc7ccccc7nc6C(C)(C)C5CC[C@@]4(C)[C@]2(C)CC3)o1 (stereo partly shown) [Compound 5e, N-2-[ursa-12-en-(2,3)-quinoline-28-oyl]-5-butyl-1,3,4-oxadiazole]	> 50 µM	> 50 µM	> 50 µM		
	CCCCc1nnc([C@]23CC[C@@H](C)[C@H](C)C2C2=CCC4[C@@]5(C)Cc6cc7cc(OC)ccc7nc6C(C)(C)C5CC[C@@]4(C)[C@]2(C)CC3)o1 (stereo partly shown) [Compound 5f, N-[5′-methoxy-ursa-12-en-(2,3)-quinoline-28-oyl]-5-butyl-1,3,4-oxadiazole]	> 50 µM	30.9 ± 1.14 µM	> 50 µM		
	CCCCc1nnc([C@]23CC[C@@H](C)[C@H](C)C2C2=CCC4[C@@]5(C)Cc6cc7cc(F)ccc7nc6C(C)(C)C5CC[C@@]4(C)[C@]2(C)CC3)o1 (stereo partly shown) [Compound 5g, N-[5′-fluoro-ursa-12-en-(2,3)-quinoline-28-oyl]-5-butyl-1,3,4-oxadiazole]	> 50 µM	> 50 µM	> 50 µM		
	CCCCc1nnc([C@]23CC[C@@H](C)[C@H](C)C2C2=CCC4[C@@]5(C)Cc6cc7cc(Cl)ccc7nc6C(C)(C)C5CC[C@@]4(C)[C@]2(C)CC3)o1 (stereo partly shown) [Compound 5h, N-[5′-chloro-ursa-12-en-(2,3)-quinoline-28-oyl]-5-butyl-1,3,4-oxadiazole]	> 50 µM	> 50 µM	> 50 µM		
	Cc1nnc([C@]23CC[C@@H](C)[C@H](C)C2C2=CCC4[C@@]5(C)Cc6cc7ccccc7nc6C(C)(C)C5CC[C@@]4(C)[C@]2(C)CC3)s1 (stereo partly shown) [Compound 6a]	18.8 ± 1.38 µM	27.3 ± 1.91 µM	> 50 µM	> 50 µM	4.8
	COc1ccc2nc3c(cc2c1)CC1(C)C(CCC2(C)C1CC=C1C4C(C)C(C)CCC4(c4nnc(C)s4)CCC12C)C3(C)C (stereo not shown) [Compound 6b]	15.7 ± 2.01 µM	12.8 ± 1.32 µM	> 50 µM	> 50 µM	8.5
	Cc1nnc([C@]23CC[C@@H](C)[C@H](C)C2C2=CCC4[C@@]5(C)Cc6cc7cc(F)ccc7nc6C(C)(C)C5CC[C@@]4(C)[C@]2(C)CC3)s1 (stereo partly shown) [Compound 6c]	31.6 ± 2.7 µM	> 50 µM	> 50 µM	> 50 µM	2.8
	CCCCc1nnc([C@]23CC[C@@H](C)[C@H](C)C2C2=CCC4[C@@]5(C)Cc6cc7ccccc7nc6C(C)(C)C5CC[C@@]4(C)[C@]2(C)CC3)s1 (stereo partly shown) [Compound 6e, N-2-[ursa-12-en-(2,3)-quinoline-28-oyl]-5-butyl-1,3,4-thiadiazole]	> 50 µM	> 50 µM	> 50 µM		
	CCCCc1nnc([C@]23CC[C@@H](C)[C@H](C)C2C2=CCC4[C@@]5(C)Cc6cc7cc(OC)ccc7nc6C(C)(C)C5CC[C@@]4(C)[C@]2(C)CC3)s1 (stereo partly shown) [Compound 6f, N-2-[5′-methoxy-ursa-12-en-(2,3)-quinoline-28-oyl]-5-butyl-1,3,4-thiadiazole]	> 50 µM	> 50 µM	> 50 µM		
	CCCCc1nnc([C@]23CC[C@@H](C)[C@H](C)C2C2=CCC4[C@@]5(C)Cc6cc7cc(Cl)ccc7nc6C(C)(C)C5CC[C@@]4(C)[C@]2(C)CC3)s1 (stereo partly shown) [Compound 6h, N-2-[5′-chloro-ursa-12-en-(2,3)-quinoline-28-oyl]-5-butyl-1,3,4-thiadiazole]	> 50 µM	> 50 µM	> 50 µM		
	COc1cc([C@@H]2c3cc4c(cc3[C@@H](O[C@@H]3O[C@@H]5CO[C@@H](C)O[C@H]5[C@H](O)[C@H]3O)[C@H]3COC(=O)[C@H]23)OCO4)cc(OC)c1O [Etoposide, reference compound]	5.26 ± 1.21 µM	2.98 ± 0.42 µM	3.48 ± 0.35 µM	28.8 ± 3.28 µM	9.6
